Reference: patent US20230115274A1, “COMPOUNDS AND COMPOSITIONS FOR TREATING CONDITIONS ASSOCIATED WITH STING ACTIVITY” (IFM Due, Inc., priority 2019, published 2023)

Biological target: T1, hSTING (Homo sapiens, UniProt Q86WV6, G230A/H232R/R293Q/R71H)
T1 construct: host or cells: THP1-Dual KO-IFNAR2 cells
Assay: STING reporter assay (luciferase) in THP1-Dual KO-IFNAR2 cells stimulated with 2′3′cGAMP
Assay type: cell-based
Details: 2′3′cGAMP 15 μM, 24 h, class symbols
In short: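 THP1-Dual KO-IFNAR2 cells (2×10E6 cells/mL) were treated with compound at 0.0017-100 μM final plus 15 μM final 2′3′cGAMP delivered with Lipofectamine 2000. After 24 h at 37° C., secreted luciferase in supernatant was read by QUANTI-Luc luminescence and EC50 values were fitted.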

T1 sequence (Q86WV6 whole entry R71H/G230A/H232R/R293Q): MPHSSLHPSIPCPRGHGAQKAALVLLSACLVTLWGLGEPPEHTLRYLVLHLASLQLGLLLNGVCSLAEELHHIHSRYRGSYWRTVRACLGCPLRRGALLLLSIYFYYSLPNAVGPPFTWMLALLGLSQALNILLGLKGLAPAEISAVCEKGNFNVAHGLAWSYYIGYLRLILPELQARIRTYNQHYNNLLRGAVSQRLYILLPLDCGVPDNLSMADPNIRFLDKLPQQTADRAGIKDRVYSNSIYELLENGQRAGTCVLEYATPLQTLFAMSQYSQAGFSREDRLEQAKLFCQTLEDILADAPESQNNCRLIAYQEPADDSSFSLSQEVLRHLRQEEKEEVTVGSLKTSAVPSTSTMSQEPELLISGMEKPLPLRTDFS

EC50	SMILES
1000 to 5000 nM	O=C(Nc1cc(Cl)nc(C2CCC(F)(F)CC2)c1)Nc1c[nH]c2cccnc12 [Compound 217, 1-(2-chloro-6-(4,4-difluorocyclohexyl)pyridin-4-yl)-3-(1H-pyrrolo[3,2-b]pyridin-3-yl)urea]
200 to 1000 nM	O=C(Nc1cc(Cl)c(N2CCC(F)(F)CC2)cn1)Nc1c[nH]c2ncc(F)cc12 [Compound 186, 1-(4-chloro-5-(4,4-difluoropiperidin-1-yl)pyridin-2-yl)-3-(5-fluoro-1H-pyrrolo[2,3-b]pyridin-3-yl)urea]
200 to 1000 nM	O=C(Nc1ccc(C2CC(F)(F)C2)c(Cl)c1)Nc1c[nH]c2cccnc12 [Compound 219, 1-(3-chloro-4-(3,3-difluorocyclobutyl)phenyl)-3-(1H-pyrrolo[3,2-b]pyridin-3-yl)urea]
200 to 1000 nM	O=C(Nc1cnc(N2CCC(F)(F)CC2)c(Cl)c1)Nc1c[nH]c2cc(F)cnc12 [Compound 145, 1-(5-chloro-6-(4,4-difluoropiperidin-1-yl)pyridin-3-yl)-3-(6-fluoro-1H-pyrrolo[3,2-b]pyridin-3-yl)urea]
